Test results as given in US20050032904A1, “Composition and use of allylamine derivatives” (priority 2003, published 2005).

System: human gingival fibroblasts
Experiment: Determination of cell growth curve (cell counting)
Format: cell-based
Details: 5 days
Procedure: The effect of TB on the growth of various human cancer cells wasexamined. In FIG. 1, (A) COLO205, (B) HT29, (C) HepG2, (D) Hep3B, (E) HL60, and (F) normal human fibroblast cells were treated with various concentrations of TB (30 to 120 μM). Media with or without TB were renewed daily until cell counting. Three samples were analyzed in each group. Values represent mean±S.E. The cells were cultured for 5 days with or without TB (30-120 μM), and then the cells were harvested and counted. […] However, when TB concentration was increased to 120 μM, a 50% growth inhibition was observed.
Human colon cancer, hepatoma, leukemia, and human normal fibroblast cells at a density of 1×10^4 were plated in 35-mm Petri dishes. TB was added at the indicated doses in 0.05% dimethyl-sulfoxide (DMSO). For control specimens, the same volume of the 0.05% DMSO without TB was added. Media with and without TB were changed daily until cell counting

In the case of `CN(C/C=C/C#CC(C)(C)C)Cc1cccc2ccccc12` [TB, 1-Naphthalenemethanamine, N-(6,6-dimethyl-2-hepten-4-ynyl)-N-methyl-, (E)-], the inhibition at 120 µM (Homo sapiens, Fibroblast, 120 h, TB 120 μM, medium changed daily, read-out: growth inhibition (reduction of cell count)) is reported as 50% and the growth rate (TB 30-60 μM) is reported as “did not inhibit the growth rate”.
